In brackets after ≈: the same amount, converted by molar mass.
Assay: Toxicity in Artemia salina after 24 hrs
Format: organism-based
Settings: in vivo, read-out: LD50

SMILES | LC50 at 24 h [µg/mL]
CC1=C(O)[C@@](O)([C@@H]2C[C@H]3OC(=O)[C@H](C)[C@@H]4CCC[C@@]5(CC[C@H](O5)[C@H](O)[C@@]5(C)CC(=O)[C@H](O5)[C@H]5C[C@]6(C)CC[C@](O5)(O6)[C@H]5CC[C@](C)(C[C@@H](C)/C=C(C)/C=C/[C@H]3O2)O5)O4)OCC1 | 2.5 (≈ 2.92 µM)
C=CCC/C=C/CCCC/C=C/[C@@H](O)[C@H](O)[C@@H]1O[C@@H]([C@H](O)[C@H](O)C(=C)CC[C@@H](O)[C@H]2C[C@@H](O)[C@@H](O)[C@H]([C@@H](O)[C@H](O)/C=C(C)/C=C/CC(O)CC(O)CNC(=O)C(O)C(O)C/C=C\C(O)C(O)/C(C)=C/CCCC(O)/C=C/CC(O)/C=C/CC(O)CN)O2)C[C@@H](O)[C@H]1O (some centres not stated) | 0.9 (≈ 0.685 µM)

Source: ChEMBL document CHEMBL2380199, “Ostreol A: a new cytotoxic compound isolated from the epiphytic dinoflagellate Ostreopsis cf. ovata from the coastal waters of Jeju Island, Korea” (Bioorg Med Chem Lett, 2013)
